Data set [1] deals with corn pollen. In words: Pollen toxicity: germination of corn pollen after incubation in pollen storage solutions. It is filed as cell-based, corn (Zea mays). To be noted: 1.0M sucrose, 10 mM MES, 0.5M, 1.0M or 1.5M cryoprotectant; 15 minutes at room temperature or 4° C.; germination plates; FIG. 1.
Method: Pollen storage solutions comprising 1.0M sucrose, 10 mM MES, and 0.5M, 1.0M, or 1.5M of cryoprotectant were evaluated for pollen toxicity. Briefly, corn pollen was suspended in each pollen storage solution at either room temperature or 4° C. and incubated for 15 minutes. The pollen storage solutions were applied to standard germination plates using an airbrush and images of the plates were obtained to evaluate germination. A 1.0M solution of sucrose was used as the positive control.
In data set [2] the test system is pollen. In words: Pollen permeability of cryoprotectants. As to conditions: permeability test of cryoprotectants.
Method: (§1) As used herein the term “impermeable” refers to a state where an isotonic solution of the solute when first mixed with pollen produces less than about 10% pollen lysis over the first 4 hours that the pollen is in contact with the solution. As used herein the term “permeable” refers to a state where an isotonic solution of the cryoprotectant when first mixed with pollen produces greater than 50% pollen lysis over the first 4 hours that the pollen is in contact with the solution.
(§2) The pollen permeability of numerous cryoprotectants was evaluated to initially identify suitable candidates for use in the pollen storage solution. Suitable cryoprotectants will be permeable to the pollen in the solution. Suitable solutes will maintain the tonicity of the pollen storage solution at a concentration between about 0.5M and about 3.0M. […] Pollen storage solutions comprising 1.0M sucrose, 10 mM MES, and 0.5M, 1.0M, or 1.5M of cryoprotectant were evaluated for pollen toxicity.
The test system of data set [3] is pollen. To be noted: not told.
Method: as §1, §2

Structures are written as SMILES. Read-outs that look alike come from different tables or passages of the source.

For `OCCO` [ethylene glycol], in data set [1], the germination rates entry is reported as “highest germination rates”. Further, the “pollen permeability of cryoprotectant” value in data set [2] is recorded as “among the most permeable”.
`C[S+](C)[O-]` [DMSO, dimethyl sulfoxide]: in data set [1], the germination rates result is “highest germination rates”. Moreover, the “pollen permeability of cryoprotectant” value in data set [3] was “among the most permeable”.

(Values after patent publication US11910794B2, “Solutions and methods for long-term pollen storage” (Monsanto Technology LLC, priority 2021, dated 2024).)
